For orientation: EC50 means the concentration giving half of the maximal effect.

The first data set deals with HT-29 human colon cells. Kind of data set: Tumor cytotoxicity assay, resazurin fluorescence, 48 h (Example 6). The class given is cell-based.
Conditions: not given
(In general: Resazurin is reduced to fluorescent resorufin, in cell work by metabolically active cells.)
Take `Cc1cccc(/C=c2\[nH]c(=O)/c(=C/c3nc[nH]c3C(C)(C)C)[nH]c2=O)c1C` [KPU-90, 3-{(Z)-1-[5-(tert-Butyl)-1H-4-imidazolyl]methylidene}-6-[(Z)-1-(2,3-dimethylphenyl)methylidene]-2,5-piperazinedione]: the “potency relative to dehydroPLH” value was 16 times and the “potency relative to tBu-dehydroPLH” value stood at 4 times.

Staying with this data set, now noted: Homo sapiens, HT-29, Table 11, replacement with the heteroaryl ring; proliferation of HT-29 cells.
`CC(C)(C)c1[nH]cnc1/C=c1\[nH]c(=O)/c(=C/c2ccc(Cl)s2)[nH]c1=O` [KPU-61, tBu-ΔPLH-5-Cl-2-thionyl] returned an EC50 of 184 nM.

Staying with this data set, now noted: Homo sapiens, HT-29; Table 3; read-out: EC50 (nM) HT-29.
As for `CC(C)(C)c1[nH]cnc1/C=c1\[nH]c(=O)/c(=C/c2cc([N+](=O)[O-])ccc2Cl)[nH]c1=O` [KPU-21, tBu-ΔPLH-2Cl-5-NO2], the EC50 stood at 51 nM.
Same read-out and setting: with `Cc1ccc(/C=c2\[nH]c(=O)/c(=C/c3nc[nH]c3C(C)(C)C)[nH]c2=O)s1` [KPU-27, tBu-ΔPLH-5-Me-2-thienyl] the figure was 80 nM; with `COc1cccc2cc3c(=O)[nH]/c(=C\c4nc[nH]c4C(C)(C)C)c(=O)n3c12` [KPU-24, tBu-ΔPLH-cyclized-3-MeO], 7040 nM.

Staying with this data set, now noted: Homo sapiens, HT-29; Table 5, synthetic potent dehydroPLH derivatives; read-out: EC50.
On to `COc1ccc(F)c(/C=c2\[nH]c(=O)/c(=C/c3nc[nH]c3C(C)(C)C)[nH]c2=O)c1` [KPU-81, TBu-ΔPLH-2-F-5-OMe], for which the EC50 is 19 nM.
`Cc1cccc(/C=c2\[nH]c(=O)/c(=C/c3nc[nH]c3C(C)(C)C)[nH]c2=O)c1C` [KPU-90, 3-{(Z)-1-[5-(tert-Butyl)-1H-4-imidazolyl]methylidene}-6-[(Z)-1-(2,3-dimethylphenyl)methylidene]-2,5-piperazinedione]: the concentration giving a half-maximal response (EC50) came out at 3 nM.
On to `CC(C)(C)c1[nH]cnc1/C=c1\[nH]c(=O)/c(=C/c2cccc(OC(F)(F)F)c2)[nH]c1=O` [KPU-80, TBu-ΔPLH-m-OCF3], for which the EC50 was found to be 13 nM.

Still in this data set, the particulars now being: Homo sapiens, HT-29; text to Table 5, most potent compound; read-out: EC50 value.
For `Cc1cccc(/C=c2\[nH]c(=O)/c(=C/c3nc[nH]c3C(C)(C)C)[nH]c2=O)c1C` [KPU-90, 3-{(Z)-1-[5-(tert-Butyl)-1H-4-imidazolyl]methylidene}-6-[(Z)-1-(2,3-dimethylphenyl)methylidene]-2,5-piperazinedione], the EC50 was 3 nM.

Staying with this data set, now noted: Homo sapiens; Table 6, proliferation of HT-29 cells; read-out: EC50.
As to `COc1cccc2cc3c(=O)[nH]/c(=C\c4nc[nH]c4C(C)(C)C)c(=O)n3c12` [KPU-24, tBu-ΔPLH-cyclized-3-MeO], the concentration for a half-maximal effect (EC50) turned out to be 7040 nM.

The data set is the same for the next values; noted with them: Homo sapiens; Table 7, electron-withdrawing group; proliferation of HT-29 cells; read-out: EC50.
`CC(C)(C)c1[nH]cnc1/C=c1\[nH]c(=O)/c(=C/c2ccc(C#N)cc2)[nH]c1=O` [KPU-43, tBu-ΔPLH-p-CN]: the EC50 is > 20000 nM.
Still for that read-out and setting: the same measure for `CC(C)(C)c1[nH]cnc1/C=c1\[nH]c(=O)/c(=C/c2cc([N+](=O)[O-])ccc2Cl)[nH]c1=O` [KPU-21, tBu-ΔPLH-2Cl-5-NO2]: 51 nM; for `CC(C)(C)c1[nH]cnc1/C=c1\[nH]c(=O)/c(=C/c2cc(Cl)ccc2[N+](=O)[O-])[nH]c1=O` [KPU-52, tBu-ΔPLH-2-NO2-5-Cl]: 110 nM.

Still in this data set, the particulars now being: Homo sapiens; Table 8, electron-donating group; proliferation of HT-29 cells; read-out: EC50.
Regarding `COc1ccc(/C=c2\[nH]c(=O)/c(=C/c3nc[nH]c3C(C)(C)C)[nH]c2=O)cc1O` [KPU-57, tBu-delta-PLH-3-OH-4-OMe], the EC50 is > 20000 nM.
Still for that read-out and setting: the same measure for `CC(C)(C)c1[nH]cnc1/C=c1\[nH]c(=O)/c(=C/c2cccc3c2OCO3)[nH]c1=O` [KPU-30, tBu-ΔPLH-2,3-methylendioxy]: 477 nM.

The same data set, now with this note: Homo sapiens; Table 11, replacement with the heteroaryl ring; proliferation of HT-29 cells; read-out: EC50.
Consider `Cc1cccc(/C=c2\[nH]c(=O)/c(=C/c3nc[nH]c3C(C)(C)C)[nH]c2=O)n1` [KPU-33, tBu-ΔPLH-3-Me-2-pyridyl], for which the EC50 was > 20000 nM.
Still for that read-out and setting: with `Cc1ccc(/C=c2\[nH]c(=O)/c(=C/c3nc[nH]c3C(C)(C)C)[nH]c2=O)s1` [KPU-27, tBu-ΔPLH-5-Me-2-thienyl] the figure was 80 nM.

Still in this data set, the particulars now being: Table 1 text.
Consider `CC(C)(C)c1[nH]cnc1/C=c1\[nH]c(=O)/c(=C/c2ccccc2)[nH]c1=O` [tBu-dehydrophenylahistin, 3-Z-Benzylidene-6-(5″-tert-butyl-1H-imidazol-4″-Z-ylmethylene)-piperazine-2,5-dione], for which the “greater cytotoxic activity in comparison with dehydrophenylahistin” value was ~4 times.

The data set is the same for the next values; noted with them: in words.
Regarding `COc1ccc(F)c(/C=c2\[nH]c(=O)/c(=C/c3nc[nH]c3C(C)(C)C)[nH]c2=O)c1` [KPU-81, TBu-ΔPLH-2-F-5-OMe], the “activity compared with tBu-dehydroPLH” value was “higher activity than tBu-dehydroPLH”.
On the same count and under the same terms, with `CC(C)(C)c1[nH]cnc1/C=c1\[nH]c(=O)/c(=C/c2cccc(OC(F)(F)F)c2)[nH]c1=O` [KPU-80, TBu-ΔPLH-m-OCF3] the entry was “higher activity than tBu-dehydroPLH”.

Another data set deals with HT-29 human colorectal carcinoma cells. Kind of data set: Cell growth inhibition assay, resazurin (Table 3.2). The note with it: HT-29, read-out: EC50 (M) Mean. Format: cell-based. As to the method:
The cytotoxic effects of various derivatives of dehydrophenylahistin against HT-29 human colorectal carcinoma cells were determined.
HT-29 cells (ATCC; HTB-38) were maintained in ATCC recommended culture media and cultured in an incubator at 37° C. in 5% CO2 and 95% humidified air.
For cell growth inhibition assays, HT-29 cells were seeded at 5×10^3 cells/well in 90 μl complete media into a Corning 3904 black-walled, clear-bottom tissue culture plates and the plates were incubated overnight to allow cells to establish and enter log phase growth. 20 mM stock solutions of compounds were prepared in 100% DMSO and stored at −80° C. 10× concentrated serial dilutions of the compounds were prepared in culture medium for final concentrations ranging from 20 μM to […]. Ten μl volumes of the 10× serial dilutions were added to the test wells in triplicate and the plates returned to the incubator for 48 hours. The final concentration of DMSO was 0.25% in all samples.
Following 48 hours of drug exposure, 10 μl of 0.2 mg/ml resazurin (obtained from Sigma-Aldrich Chemical Co.) in Mg^2+, Ca^2+ free phosphate buffered saline was added to each well and the plates were returned to the incubator for 3-4 hours. […] Resazurin dye in medium without cells was used to determine the background, which was subtracted from the data for all experimental wells.
Turning to `Cc1cccc(/C=c2\[nH]c(=O)/c(=C/c3ncoc3C(C)(C)C)[nH]c2=O)c1` [Compound 2466, tBu-Oxadelta-PLH-3-CH3], the EC50 was found to be 5.55e-08 M.
The same measure, in the same setting: with `Cc1cccc(/C=c2\[nH]c(=O)/c(=C/c3ncoc3C(C)(C)C)[nH]c2=O)c1C` [Compound 2486, tBu-Oxadelta-PLH-2,3-diMe] the figure was 1.43e-07 M; with `C=Cc1cccc(/C=c2\[nH]c(=O)/c(=C/c3ncoc3C(C)(C)C)[nH]c2=O)c1` [Compound 2482, tBu-Oxadelta-PLH-m-vinyl], 2.65e-08 M.
Still for that read-out and setting: the same measure for `CC(C)(C)c1ocnc1/C=c1\[nH]c(=O)/c(=C/c2ccc3nsnc3c2)[nH]c1=O` [Compound 2509, tBu-oxadelta-PLH-2,1,3-benzothiadiazole]: 4.04e-07 M.
Same read-out and setting: with `Cc1oc(-c2ccccc2)cc1/C=c1\[nH]c(=O)/c(=C/c2ncoc2C(C)(C)C)[nH]c1=O` [Compound 2505, tBu-oxadelta-PLH-2-Me-5-Ph-3-furyl] the figure was > 6.32e-06 M; with `CC(C)(C)c1ocnc1/C=c1\[nH]c(=O)/c(=C/c2cccc(Cl)c2)[nH]c1=O` [Compound 2467, tBu-Oxadelta-PLH-3-Cl], 5.41e-08 M; with `CC(C)(C)c1ocnc1/C=c1\[nH]c(=O)/c(=C/c2ccccn2)[nH]c1=O` [Compound 2474, tBu-Oxadelta-PLH-2-Py], > 6.32e-07 M.
Consider `COc1cccc(/C=c2\[nH]c(=O)/c(=C/c3ncoc3C(C)(C)C)[nH]c2=O)c1` [Compound 2462, tBu-Oxadelta-PLH-m-OMe], for which the EC50 was found to be 5.41e-08 M.
Same read-out and setting: the same measure for `CC(C)(C)c1ocnc1/C=c1\[nH]c(=O)/c(=C/c2cccc(C(=O)c3ccccc3)c2)[nH]c1=O` [Compound 2512, tBu-oxadelta-PLH-3-benzoyl]: 3.86e-09 M.
In the case of `CC(C)(C)c1ocnc1/C=c1\[nH]c(=O)/c(=C/c2ccc(Cl)o2)[nH]c1=O` [Compound 2481, tBu-Oxadelta-PLH-5-Cl-2-furyl], the EC50 worked out at 2.56e-07 M.
On the same count and under the same terms, with `CC(C)(C)c1ocnc1/C=c1\[nH]c(=O)/c(=C/c2cccc([N+](=O)[O-])c2)[nH]c1=O` [Compound 2479, tBu-Oxadelta-PLH-m-NO2] the figure was 1.08e-07 M; with `CC(C)(C)c1ocnc1/C=c1\[nH]c(=O)/c(=C/c2cccs2)[nH]c1=O` [Compound 2484, tBu-Oxadelta-PLH-2-thienyl], 1.05e-07 M.
Consider `CC(C)(C)c1ocnc1/C=c1\[nH]c(=O)/c(=C/c2cccc(Oc3ccccc3)c2)[nH]c1=O` [Compound 2501, tBu-oxadelta-PLH-3-phenoxy], for which the EC50 amounted to 2.39e-08 M.

Staying with this data set, now noted: Table 3.2, HT-29 cells, read-out: EC50 (M) Mean.
Regarding `CC(C)(C)c1ocnc1/C=c1\[nH]c(=O)/c(=C/CCc2ccccc2)[nH]c1=O` [Compound 2496, tBu-oxadelta-PLH-Ph-pr], the EC50 was 9.48e-07 M.
On the same count and under the same terms, the same measure for `CC(C)(C)c1ocnc1/C=c1\[nH]c(=O)/c(=C/c2ccoc2)[nH]c1=O` [Compound 2478, tBu-Oxadelta-PLH-3-furanyl]: 5.37e-08 M; for `CC(C)(C)c1ocnc1/C=c1\[nH]c(=O)/c(=C/c2cn(S(=O)(=O)c3ccccc3)c3ccccc23)[nH]c1=O` [Compound 2507, tBu-oxadelta-PLH-1-(Ph-sulfo)-3-indole]: > 6.32e-06 M.
As for `CC(C)(C)c1ocnc1/C=c1\[nH]c(=O)/c(=C/c2ccc(-c3cccs3)s2)[nH]c1=O` [Compound 2502, tBu-oxadelta-PLH-2,2′-bitio], the concentration giving a half-maximal response (EC50) is 1.88e-06 M.
The same measure, in the same setting: with `CC(C)(C)c1ocnc1/C=c1\[nH]c(=O)/c(=C/c2ccccc2F)[nH]c1=O` [Compound 2475, tBu-Oxadelta-PLH-2-F] the figure was 4.66e-07 M; with `CC(C)(C)c1ocnc1/C=c1\[nH]c(=O)/c(=C/c2ccccc2[N+](=O)[O-])[nH]c1=O` [Compound 2476, tBu-Oxadelta-PLH-2-NO2], 1.24e-07 M; with `CC(C)(C)c1ocnc1/C=C1\NC(=O)[C@H](Cc2ccccc2)NC1=O` [Compound 2513, tBu-oxa-PLH], 9.24e-07 M.
Take `CC(C)(C)c1ocnc1/C=c1\[nH]c(=O)/c(=C/c2cccc(Br)c2)[nH]c1=O` [Compound 2473, tBu-Oxadelta-PLH-3-Br]: the EC50 is 5.59e-08 M.
The same measure, in the same setting: with `CC(C)(C)c1ocnc1/C=c1\[nH]c(=O)/c(=C/c2ccccc2Cl)[nH]c1=O` [Compound 2465, tBu-Oxadelta-PLH-2-Cl] the figure was 5.4e-08 M.
Still for that read-out and setting: the same measure for `CC(C)(C)c1ocnc1/C=c1\[nH]c(=O)/c(=C/c2ccsc2)[nH]c1=O` [Compound 2487, tBu-Oxadelta-PLH-3-thienyl]: 7.93e-08 M.

These data come from US8129527B2, “Analogs of dehydrophenylahistins and their therapeutic use” (Nereus Pharmacuticals, Inc., priority 2006, dated 2012).
